For this assay, the target named is GluA1o-γ8 (Homo sapiens (Human), UniProt P42261+Q8WXS5). Description: Calcium flux assay (FLIPR), inhibition of TARP γ8 dependent AMPA receptor activity. Type of assay: cell-based. To be noted: HEK293 cells stably expressing GRIA1o-CACNG8 fusion construct; calcium flux following 15 μM glutamate; negative log of IC50 in molar. From the text: This assay was used to test compounds for their ability to inhibit TARP γ8 dependent AMPA receptor activity. The AMPA receptor is a non-selective cation channel activated by glutamate. Ionotropic glutamate receptors normally desensitize too rapidly to allow detectable calcium influx in a FLIPR assay (Strange et al. (2006). “Functional characterisation of homomeric ionotropic glutamate receptors GluR1-GluR6 in a fluorescence-based high throughput screening assay.” Comb Chem High Throughput Screen 9(2): 147-158). But, this desensitization is incomplete, and a substantial steady-state current remains in the sustained presence of glutamate (Cho et al. (2007). “Two families of TARP isoforms that have distinct effects on the kinetic properties of AMPA receptors and synaptic currents.” Neuron 55(6): 890-904).
GluA1o-γ8, sequence (P42261 other isoform, or with tags, fused parts or gaps): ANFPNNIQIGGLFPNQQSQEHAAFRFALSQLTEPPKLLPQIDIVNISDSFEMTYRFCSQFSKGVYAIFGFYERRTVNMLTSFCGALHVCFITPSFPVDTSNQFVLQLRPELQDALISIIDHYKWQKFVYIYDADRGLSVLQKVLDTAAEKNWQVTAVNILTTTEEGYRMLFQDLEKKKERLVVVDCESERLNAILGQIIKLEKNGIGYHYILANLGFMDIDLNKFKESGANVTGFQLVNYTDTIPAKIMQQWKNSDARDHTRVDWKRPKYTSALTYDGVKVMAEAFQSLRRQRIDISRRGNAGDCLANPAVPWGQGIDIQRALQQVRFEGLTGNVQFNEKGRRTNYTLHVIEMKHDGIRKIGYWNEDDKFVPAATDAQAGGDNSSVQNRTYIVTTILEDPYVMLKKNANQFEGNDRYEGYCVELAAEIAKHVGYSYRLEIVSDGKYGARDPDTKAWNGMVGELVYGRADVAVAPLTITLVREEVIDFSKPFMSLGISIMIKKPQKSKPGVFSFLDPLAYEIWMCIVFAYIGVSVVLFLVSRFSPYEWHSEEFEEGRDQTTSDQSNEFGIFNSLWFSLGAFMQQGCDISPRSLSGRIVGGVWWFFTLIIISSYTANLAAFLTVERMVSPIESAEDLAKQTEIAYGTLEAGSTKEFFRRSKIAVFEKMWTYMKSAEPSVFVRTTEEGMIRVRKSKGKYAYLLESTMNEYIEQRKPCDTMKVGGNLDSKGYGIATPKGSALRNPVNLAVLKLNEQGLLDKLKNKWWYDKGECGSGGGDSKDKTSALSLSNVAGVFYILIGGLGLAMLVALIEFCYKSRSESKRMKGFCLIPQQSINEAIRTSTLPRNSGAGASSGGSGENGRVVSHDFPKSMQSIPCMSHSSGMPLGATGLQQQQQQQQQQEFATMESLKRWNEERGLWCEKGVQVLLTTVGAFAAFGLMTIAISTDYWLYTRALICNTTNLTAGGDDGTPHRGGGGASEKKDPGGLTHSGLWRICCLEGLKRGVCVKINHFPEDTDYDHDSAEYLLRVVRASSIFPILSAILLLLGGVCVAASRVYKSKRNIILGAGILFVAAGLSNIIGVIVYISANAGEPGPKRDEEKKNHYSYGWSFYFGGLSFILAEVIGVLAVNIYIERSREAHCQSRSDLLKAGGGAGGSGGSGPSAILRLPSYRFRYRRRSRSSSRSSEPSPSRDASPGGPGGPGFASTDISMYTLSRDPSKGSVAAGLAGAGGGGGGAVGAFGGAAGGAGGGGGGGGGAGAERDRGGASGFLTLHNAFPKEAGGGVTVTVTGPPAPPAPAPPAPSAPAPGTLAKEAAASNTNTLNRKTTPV
An in vitro assay was used to determine the potency of test compounds as inhibitors of the glutamate response of the channel formed by GluA1o-γ8. To ensure a 1:1 stoichiometry of GluA1o and γ8 subunits in the expressed channel, a fusion of the cDNAs for GRIA1o and CACNG8 was used. Following Shi et al (2009) “The stoichiometry of AMPA receptors and TARPs varies by neuronal cell type.” Neuron 62(5): 633-640), the C-terminus of the cDNA for GRIA1o was fused to the N-terminus of the cDNA for γ8. The linker sequence was QQQQQQQQQQEFAT. Channels expressed with this construct appear to have similar properties to channels formed by co-expression of GRIA1o with an excess of CACNG8 (Shi et al. 2009). A clonal cell line in HEK293 cells stably expressing this construct, with a geneticin selection marker, was generated for use in this assay.
Cell expressing the GRIA1o-CACNG8 fusion construct were grown in a monolayer in 96- or 384-well microtiter plates. They were washed with assay buffer (135 mM NaCl, 4 mM KCl, 3 mM CaCl2, 1 mM MgCl2, 5 mM glucose, 10 mM HEPES, pH 7.4, 300 mOs) using a Biotek EL405 plate washer. The cells were then loaded with a calcium-sensitive dye (Calcium-5 or Calcium-6, Molecular Devices) and the test compounds at a range of concentrations. Calcium flux following the addition of 15 μM glutamate was monitored using a Molecular Devices FLIPR Tetra.
The fluorescence in each well was normalized to the fluorescence of negative and positive control wells. The negative control wells had no added compounds, and the positive control wells had been incubated with 10 μM CP465022 (a non-subtype-selective AMPA receptor antagonist) (Lazzaro et al. (2002). “Functional characterization of CP-465,022, a selective, noncompetitive AMPA receptor antagonist.” Neuropharmacology 42(2): 143-153). The responses to glutamate as functions of the test compound concentrations were fitted to a four-parameter logistic function. The fitted parameter corresponding to the midpoint was taken to be the potency of inhibition of the compound. The data in Table 4 below illustrates the observed potency for the compounds described herein. pIC50 refers to the negative log of the IC50 in molar.
(In general: A change in cytosolic calcium serves as a functional read-out for many receptors and channels.)

Molecules are shown by their SMILES.

`Cc1cc(-c2c(C(F)(F)F)ccn3nc(C(F)F)nc23)cc2c1NC(=O)C2` [Example 18, 7-Methyl-5-(2-(difluoromethyl)-7-(trifluoromethyl)-[1,2,4]triazolo[1,5-a]pyridin-8-yl)indolin-2-one]: the pIC50 (commonly the IC50 on a negative log10 scale, so that one unit is a factor of ten) was 8.6.
Still for that read-out and setting: next, `CCc1cn2cnc(C(F)(F)F)c(-c3cc(C)c4[nH]ncc4c3)c2n1` [Example 65, 2-Ethyl-8-(7-methyl-1H-indazol-5-yl)-7-(trifluoromethyl)imidazo[1,2-c]pyrimidine]: 8.8.
Regarding `Cc1cc(-c2c(-c3ccc(F)cc3)ccn3nc(C4CCCC4)nc23)cc2cn[nH]c12` [Example 9, 2-Cyclopentyl-7-(4-fluorophenyl)-8-(7-methyl-1H-indazol-5-yl)-[1,2,4]triazolo[1,5-a]pyridine], the negative-log IC50 (pIC50) is 10.8.
The same measure, in the same setting: next, `FC(F)(F)c1ncn2cc(C3CC3)nc2c1-c1cc(Cl)c2[nH]ncc2c1` [Example 67, 8-(7-Chloro-1H-indazol-5-yl)-2-cyclopropyl-7-(trifluoromethyl)imidazo[1,2-c]pyrimidine]: 9.9; `CC(C)c1ncn2cc(C(F)(F)F)nc2c1-c1cc(Cl)c2[nH]ncc2c1` [Example 71, 8-(7-Chloro-1H-indazol-5-yl)-7-isopropyl-2-(trifluoromethyl)imidazo[1,2-c]pyrimidine]: 9.8; `Cc1cc(-c2c(C)ccn3cc(-c4ccccc4)nc23)cc2c1NC(=O)C2` [Example 55, 7-Methyl-5-(7-methyl-2-phenyl-imidazo[1,2-a]pyridin-8-yl)indolin-2-one]: 7.4.
On the same count and under the same terms, next, `Cc1ccn2cc(C(F)(F)F)nc2c1-c1cc(F)c2c(c1)CC(=O)N2` [Example 51, 7-Fluoro-5-[7-methyl-2-(trifluoromethyl)imidazo[1,2-a]pyridin-8-yl]indolin-2-one]: 7.2; `FC(F)c1ccn2nc(C(F)(F)F)nc2c1-c1cc(Cl)c2[nH]ncc2c1` [Example 23, 8-(7-Chloro-1H-indazol-5-yl)-7-(difluoromethyl)-2-(trifluoromethyl)-[1,2,4]triazolo[1,5-a]pyridine]: 9.4; `CCc1ncn2cc(C(F)(F)F)nc2c1-c1cc(C)c2[nH]ncc2c1` [Example 74, 7-Ethyl-8-(7-methyl-1H-indazol-5-yl)-2-(trifluoromethyl)imidazo[1,2-c]pyrimidine]: 8.7.
Regarding `Cc1ncn2cc(C(F)(F)F)nc2c1-c1cc(Cl)c2[nH]ncc2c1` [Example 76, 8-(7-Chloro-1H-indazol-5-yl)-7-methyl-2-(trifluoromethyl)imidazo[1,2-c]pyrimidine], the pIC50 is reported as 8.5.
Same read-out and setting: next, `CCc1cn2ccc(C(F)(F)F)c(-c3cc(C)c4[nH]ncc4c3)c2n1` [Example 92, 2-Ethyl-8-(7-methyl-1H-indazol-5-yl)-7-(trifluoromethyl)imidazo[1,2-a]pyridine]: 9.4; `CCc1nc2c(-c3cc(C)c4[nH]ncc4c3)c(C(F)(F)F)ccn2n1` [Example 35, 2-Ethyl-8-(7-methyl-1H-indazol-5-yl)-7-(trifluoromethyl)-[1,2,4]triazolo[1,5-a]pyridine]: 8.8.
Still for that read-out and setting: the same measure for `CCc1cn2cnc(C(F)(F)F)c(-c3cc(Cl)c4[nH]ncc4c3)c2n1` [Example 64, 8-(7-Chloro-1H-indazol-5-yl)-2-ethyl-7-(trifluoromethyl)imidazo[1,2-c]pyrimidine]: 9.3; for `Cc1cc(-c2c(C(F)(F)F)ccn3cc(C4CC4)nc23)cc2cn[nH]c12` [Example 91, 2-Cyclopropyl-8-(7-methyl-1H-indazol-5-yl)-7-(trifluoromethyl)imidazo[1,2-a]pyridine]: 9.6.
As for `FC(F)(F)c1cn2cnc(C(F)(F)F)c(-c3cc(Cl)c4[nH]ncc4c3)c2n1` [Example 13, 8-(7-Chloro-1H-indazol-5-yl)-2,7-bis(trifluoromethyl)imidazo[1,2-c]pyrimidine], the half-inhibitory concentration (IC50) (in general, the concentration that gives 50% inhibition) was 0.316 nM.
`CC(C)c1cn2ccc(C(F)(F)F)c(-c3cc(Cl)c4[nH]ncc4c3)c2n1` [Example 89, 8-(7-Chloro-1H-indazol-5-yl)-2-isopropyl-7-(trifluoromethyl)imidazo[1,2-a]pyridine]: the negative logarithm of the IC50 (pIC50) was found to be 10.6.
For the compound `FC(F)(F)c1ccn2nc(C3CC3)nc2c1-c1cc(Cl)c2[nH]ncc2c1` [Example 30, 8-(7-Chloro-1H-indazol-5-yl)-2-cyclopropyl-7-(trifluoromethyl)-[1,2,4]triazolo[1,5-a]pyridine], the pIC50 is 9.8.
In the case of `COc1ccn2cc(C(F)(F)F)nc2c1-c1cc(C)c2[nH]ncc2c1` [Example 59, 7-Methoxy-8-(7-methyl-1H-indazol-5-yl)-2-(trifluoromethyl)imidazo[1,2-a]pyridine], the negative-log IC50 (pIC50) came out at 8.1.
Turning to `Fc1ccc(-c2ccn3nc(C(F)(F)F)nc3c2-c2cc(F)c3[nH]ncc3c2)cc1` [Example 42, 7-(4-Fluorophenyl)-8-(7-fluoro-1H-indazol-5-yl)-2-(trifluoromethyl)-[1,2,4]triazolo[1,5-a]pyridine], the pIC50 stood at 9.0.
On the same count and under the same terms, the same measure for `Cc1nc2c(-c3cc(Cl)c4[nH]ncc4c3)c(C(F)(F)F)ccn2n1` [Example 32, 8-(7-Chloro-1H-indazol-5-yl)-2-methyl-7-(trifluoromethyl)-[1,2,4]triazolo[1,5-a]pyridine]: 8.3.
For `Cc1cc(-c2c(C3CCCC3)ccn3nc(C(F)(F)F)nc23)cc2cn[nH]c12` [Example 6, 7-Cyclopentyl-8-(7-methyl-1H-indazol-5-yl)-2-(trifluoromethyl)-[1,2,4]triazolo[1,5-a]pyridine], the negative-log IC50 (pIC50) is reported as 10.1.
Still for that read-out and setting: next, `Cc1cc(-c2c(-c3ccc(F)cc3)ccn3nc(C(F)F)nc23)cc2cn[nH]c12` [Example 46, 2-(Difluoromethyl)-7-(4-fluorophenyl)-8-(7-methyl-1H-indazol-5-yl)-[1,2,4]triazolo[1,5-a]pyridine]: 10.5.
Regarding `CCc1nc2c(-c3cc(C)c4c(c3)CC(=O)N4)c(C(F)(F)F)ccn2n1` [Example 36, 5-[2-Ethyl-7-(trifluoromethyl)-[1,2,4]triazolo[1,5-a]pyridin-8-yl]-7-methyl-indolin-2-one], the pIC50 is on record as 8.7.
Still for that read-out and setting: next, `Cc1ccn2cc(C(C)(C)C)nc2c1-c1cc(C)c2[nH]ncc2c1` [Example 53, 2-tert-Butyl-7-methyl-8-(7-methyl-1H-indazol-5-yl)imidazo[1,2-a]pyridine]: 7.5; `O=C1Cc2cc(-c3c(C(F)(F)F)ccn4cc(C(F)(F)F)nc34)cc(Cl)c2N1` [Example 86, 5-(2,7-Bis(trifluoromethyl)imidazo[1,2-a]pyridin-8-yl)-7-chloroindolin-2-one]: 9.8; `FC(F)(F)c1ncn2c(Cl)c(C3CC3)nc2c1-c1cc(Cl)c2[nH]ncc2c1` [Example 81, 3-Chloro-8-(7-chloro-1H-indazol-5-yl)-2-cyclopropyl-7-(trifluoromethyl)imidazo[1,2-c]pyrimidine]: 9.9.
For `Cc1cc(-c2c(-c3ccc(F)cc3)ccn3nc(C(F)(F)F)nc23)cc2cn[nH]c12` [Example 44, 7-(4-Fluorophenyl)-8-(7-methyl-1H-indazol-5-yl)-2-(trifluoromethyl)-[1,2,4]triazolo[1,5-a]pyridine], the pIC50 came out at 10.5.
The same measure, in the same setting: the same measure for `Cc1ccn2cc(C3CC3)nc2c1-c1cc(C)c2[nH]ncc2c1` [Example 57, 2-Cyclopropyl-7-methyl-8-(7-methyl-1H-indazol-5-yl)imidazo[1,2-a]pyridine]: 7.6.
Turning to `FC(F)(F)c1cn2cnc(C3CC3)c(-c3cc(Cl)c4[nH]ncc4c3)c2n1` [Example 77, 8-(7-Chloro-1H-indazol-5-yl)-7-cyclopropyl-2-(trifluoromethyl)imidazo[1,2-c]pyrimidine], the negative-log IC50 (pIC50) came to 9.0.
Still for that read-out and setting: next, `Cc1cc(-c2c(C(F)(F)F)ccn3cc(C(F)(F)F)nc23)cc2cn[nH]c12` [Example 62, 5-(2,7-Bis(trifluoromethyl)imidazo[1,2-a]pyridin-8-yl)-7-methyl-1H-indazole]: 9.5.

Source of the values: patent publication US10155769B2, “Fused azaheterocyclic compounds and their use as AMPA receptor modulators” (Janssen Pharmaceutica NV, priority 2016, dated 2018).
